# In ChEMBL document CHEMBL1201862, “PubChem BioAssay data set” (2004):
# Calls of active or inactive are those of the source.
# Legend:
# cells [1] = assay type: functional, cell-based
# cells [2] = assay type: functional, cell-based; remark: listed apart in the source
# [3] = test system: Streptococcus sp. 'group A'; test: Streptococcus pyogenes SK(-)GAS viability under kanamycin – luminescence, BacTiterGlo, confirmation, counter-screen for streptokinase expression inhibitor project, dose response (AID 1900); assay type: functional, organism-based
# [4] = microbe, parasite or virus in culture; assay type: functional; settings: Mycobacterium tuberculosis
# Streptokinase A = molecular target: T1, Streptokinase A (Streptococcus pyogenes serotype M1, UniProt P10520); test: viability-normalized secreted streptokinase activity reduction – plasminogen activation absorbance, OD405, dose response (AID 1914); assay type: functional, Streptococcus pyogenes M1 GAS;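 further: secreted streptokinase activity via plasminogen activation per viability signal from cell pellet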
# T1 sequence (P10520 whole entry): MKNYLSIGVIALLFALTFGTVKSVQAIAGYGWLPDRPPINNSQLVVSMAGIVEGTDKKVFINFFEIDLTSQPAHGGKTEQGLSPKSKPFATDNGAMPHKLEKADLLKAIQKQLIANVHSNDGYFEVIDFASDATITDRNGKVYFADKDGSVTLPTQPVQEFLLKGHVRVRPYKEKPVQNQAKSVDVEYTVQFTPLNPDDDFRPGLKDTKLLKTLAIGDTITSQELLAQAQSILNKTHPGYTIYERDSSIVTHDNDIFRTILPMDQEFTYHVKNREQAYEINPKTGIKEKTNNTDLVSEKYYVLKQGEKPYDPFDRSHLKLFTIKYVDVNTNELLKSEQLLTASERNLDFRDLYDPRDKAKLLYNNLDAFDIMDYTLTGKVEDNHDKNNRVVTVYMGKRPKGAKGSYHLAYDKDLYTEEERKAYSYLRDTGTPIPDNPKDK
# Streptococcus = test: GAS UMAA2166 growth inhibition – luminescence, BacTiterGlo, counter-screen for streptokinase expression inhibitor project, dose response (AID 1915); assay type: functional, organism-based;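 further: potency for reduction of bacterial viability or growth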
# [5] = Luminescence Cell-Based Dose Response HTS to Identify Inhibitors of 5'UTR Stem-Loop Driven Prion Protein mRNA Translation in H4 Neuroglioblastoma Cells. [Related pubchem assays: 1827 (Project Summary), 1813 (Primary HTS)]; assay type: functional
# [6] = alpha-synuclein stem-loop luciferase translation blockers – H4 neuroglioma cells, luminescence, confirmation (AID 1988); assay type: functional, cell-based
# [7] = luciferase reporter signal suppression in cells – H4 neuroglioma cells, luminescence, dose response (AID 1990); assay type: functional, cell-based
# [8] = molecular target: Luciferin 4-monooxygenase (Photinus pyralis, UniProt P08659); test: inhibition of purified Photinus pyralis luciferase – biochemical, luminescence, dose response (AID 1891)
# Sequence of Luciferin 4-monooxygenase (P08659 whole entry): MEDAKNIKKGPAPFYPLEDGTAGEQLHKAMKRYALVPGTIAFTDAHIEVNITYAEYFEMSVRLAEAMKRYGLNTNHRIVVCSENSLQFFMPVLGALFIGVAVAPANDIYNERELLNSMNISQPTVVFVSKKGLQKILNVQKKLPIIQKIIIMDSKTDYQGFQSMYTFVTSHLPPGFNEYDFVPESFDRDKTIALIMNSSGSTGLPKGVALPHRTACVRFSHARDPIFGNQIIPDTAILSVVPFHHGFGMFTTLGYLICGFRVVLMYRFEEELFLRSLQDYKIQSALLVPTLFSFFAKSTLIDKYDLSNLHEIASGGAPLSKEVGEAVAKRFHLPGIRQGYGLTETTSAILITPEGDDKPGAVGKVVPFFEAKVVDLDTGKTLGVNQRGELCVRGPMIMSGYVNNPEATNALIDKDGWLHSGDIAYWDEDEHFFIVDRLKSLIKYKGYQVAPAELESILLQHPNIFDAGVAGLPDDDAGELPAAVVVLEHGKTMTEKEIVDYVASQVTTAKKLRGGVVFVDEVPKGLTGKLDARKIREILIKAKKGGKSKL
# [9] = Luminescence Cell-Based Dose Confirmation HTS to Identify Inhibitors of Platelet Dense Granule Release. [Related pubchem assays: 1663 (Primary HTS), 1678 (Summary of Project)]; assay type: functional
# [10] = molecular target: FAD-linked sulfhydryl oxidase ALR (Homo sapiens, UniProt P55789); test: ALR-catalysed DTT oxidation blockers – biochemical, H2O2 detection, luminescence, cherry-pick, dose response (AID 493248)
# Sequence of FAD-linked sulfhydryl oxidase ALR (P55789 whole entry): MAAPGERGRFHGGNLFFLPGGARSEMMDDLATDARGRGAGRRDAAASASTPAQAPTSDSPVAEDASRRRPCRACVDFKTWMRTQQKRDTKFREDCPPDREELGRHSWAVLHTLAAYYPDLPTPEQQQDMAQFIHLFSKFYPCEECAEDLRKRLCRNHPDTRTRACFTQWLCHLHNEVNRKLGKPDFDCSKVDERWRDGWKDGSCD
# [11] = viability of PTEN-deleted HCT116 cells – cell-based, HCT116 PTEN knockout, dose response (AID 1047); assay type: functional;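 further: HCT116 colon tumor cells with PTEN knocked out; cells exposed to compound for 60 hours before readout; potency for loss of cell viability measured by luminescence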
# [12] = viability of HCT116 lacking mutant beta-catenin – cell-based, human colon tumor, dose response (AID 1045); assay type: functional;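 further: HCT116 colon tumor cells with beta catenin knocked out; cells exposed to compound for 60 hours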
# [13] = Luminescence Cell-Based Dose Retest to Confirm Inhibitors of Cancer Stem Cells. [Related pubchem assays (depositor defined):AID2717, AID2721]; assay type: functional; settings: Homo sapiens
# [14] = Trypanosoma cruzi growth suppression in host cells – NIH3T3 host cells, beta-gal luminescence, confirmation (AID 2044); assay type: functional, cell-based;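 further: intracellular parasites grown in NIH/3T3 mouse fibroblasts as host cells; luminescent beta-galactosidase reporter signal from transgenic T. cruzi replicating inside host cells; inhibitors lower the luminescence signal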
# [15] = NIH3T3 cell viability loss – ATP luminescence, mouse fibroblasts, counter-screen, dose response (AID 2010); assay type: functional, cell-based;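 further: cells exposed to compound for about 90 hours before reading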
# cells [16] = assay type: functional
# Cytochrome P450 2D6 = Cytochrome P450 2D6 (Homo sapiens, UniProt P10635);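 further: CYP2D6 member of a cytochrome P450 panel assay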
# Sequence of Cytochrome P450 2D6 (P10635 whole entry): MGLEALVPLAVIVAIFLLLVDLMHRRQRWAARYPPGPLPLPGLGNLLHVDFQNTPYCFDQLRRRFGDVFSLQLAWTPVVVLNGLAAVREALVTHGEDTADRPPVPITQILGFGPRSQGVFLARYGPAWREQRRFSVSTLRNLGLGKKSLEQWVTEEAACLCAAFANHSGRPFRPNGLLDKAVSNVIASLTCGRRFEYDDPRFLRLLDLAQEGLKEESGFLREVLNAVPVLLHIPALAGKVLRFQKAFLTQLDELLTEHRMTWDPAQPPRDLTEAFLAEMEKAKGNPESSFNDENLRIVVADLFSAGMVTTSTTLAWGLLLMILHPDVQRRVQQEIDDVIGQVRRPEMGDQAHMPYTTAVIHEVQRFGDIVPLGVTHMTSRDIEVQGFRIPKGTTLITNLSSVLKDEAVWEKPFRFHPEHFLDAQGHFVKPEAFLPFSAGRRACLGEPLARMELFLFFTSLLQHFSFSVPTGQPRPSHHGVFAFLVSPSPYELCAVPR
# Cytochrome P450 2C9 = Cytochrome P450 2C9 (Homo sapiens, UniProt P11712)
# Sequence of Cytochrome P450 2C9 (P11712 whole entry): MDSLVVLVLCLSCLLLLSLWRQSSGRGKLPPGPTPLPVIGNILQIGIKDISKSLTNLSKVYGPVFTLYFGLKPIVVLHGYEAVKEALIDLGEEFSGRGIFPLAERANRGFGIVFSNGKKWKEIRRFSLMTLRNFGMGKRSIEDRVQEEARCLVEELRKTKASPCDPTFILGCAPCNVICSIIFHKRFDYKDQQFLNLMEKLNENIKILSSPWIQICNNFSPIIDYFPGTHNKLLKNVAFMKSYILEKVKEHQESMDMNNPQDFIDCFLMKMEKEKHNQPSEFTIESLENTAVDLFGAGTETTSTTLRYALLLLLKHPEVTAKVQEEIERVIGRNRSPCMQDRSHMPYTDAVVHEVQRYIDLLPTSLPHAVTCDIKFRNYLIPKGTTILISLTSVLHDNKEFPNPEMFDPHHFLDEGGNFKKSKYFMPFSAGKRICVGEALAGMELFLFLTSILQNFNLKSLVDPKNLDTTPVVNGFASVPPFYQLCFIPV
# [17] = molecular target: T2, Heat shock factor protein 1 (Mus musculus, UniProt P38532); test: enhancement of HSF1-driven luciferase signal – cell-based, NIH3T3, luminescence, dose retest, confirmation (AID 435004); assay type: functional;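 further: stress induced by proteasome inhibitor MG132 added 30 min after compound; luciferase reporter driven by HSF1 response element in NIH3T3 cells; actives raise luminescence as potentiators of the MG132 stress response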
# T2 sequence (P38532 whole entry): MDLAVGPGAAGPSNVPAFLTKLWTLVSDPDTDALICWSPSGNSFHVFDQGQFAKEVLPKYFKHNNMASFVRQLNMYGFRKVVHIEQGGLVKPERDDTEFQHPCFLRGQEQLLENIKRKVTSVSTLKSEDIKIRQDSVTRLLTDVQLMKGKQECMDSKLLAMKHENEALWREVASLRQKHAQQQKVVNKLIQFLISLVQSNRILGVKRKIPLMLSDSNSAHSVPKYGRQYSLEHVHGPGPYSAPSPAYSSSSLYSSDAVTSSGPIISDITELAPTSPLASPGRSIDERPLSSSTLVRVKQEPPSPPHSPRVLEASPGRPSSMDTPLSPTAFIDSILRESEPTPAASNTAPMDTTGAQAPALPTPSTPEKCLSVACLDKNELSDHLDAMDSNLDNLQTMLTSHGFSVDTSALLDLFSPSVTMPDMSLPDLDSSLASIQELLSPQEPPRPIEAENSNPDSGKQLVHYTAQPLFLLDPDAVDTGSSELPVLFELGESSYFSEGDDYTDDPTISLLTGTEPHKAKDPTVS
# [18] = blockers of HIV-1 ZM109 envelope-driven cell-cell fusion – HeLa effector, CEM target cells, luciferase, cherry-pick, dose response (AID 652058); assay type: functional, cell-based;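 further: luciferase signal from HIV-1 Env mediated cell-cell fusion of effector and target cells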
# [19] = loss of viability in HepG2 cells – cell-based, CellTiter-Glo, cherry-picked, cytotoxicity control for Shn3 inhibitor project, dose response (AID 624134); assay type: functional
# [20] = reduction of Shn3 3'UTR-driven luciferase in osteoblasts – cell-based, Clone20 osteoblasts, firefly luciferase, cherry-picked, dose response (AID 624132); assay type: functional;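 further: firefly luciferase luminescence from reporter carrying the Shn3 3'UTR in osteoblasts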
# [21] = blockers of HIV-1 envelope-mediated cell-cell fusion – cherry-pick, dose response (AID 652057); assay type: functional, cell-based
# [22] = HIV-1 AD8 envelope cell-cell fusion blockers – cherry-pick, dose response (AID 652062); assay type: functional, cell-based;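 further: luciferase signal from cell-cell fusion driven by HIV-1 clade B AD8 Env; potency is for inhibitors of fusion seen as a drop in luminescence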
# Paired box protein Pax-8 = Paired box protein Pax-8 (Homo sapiens, UniProt Q06710); test: PAX8 transcriptional activity inhibition in RMG-I – RMG-I cells, luciferase, cherry-pick, dose response (AID 687027); assay type: functional, cell-based;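 further: luciferase reporter driven by Pax8 target thyroperoxidase promoter measured by SteadyGlo luminescence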
# Sequence of Paired box protein Pax-8 (Q06710 whole entry): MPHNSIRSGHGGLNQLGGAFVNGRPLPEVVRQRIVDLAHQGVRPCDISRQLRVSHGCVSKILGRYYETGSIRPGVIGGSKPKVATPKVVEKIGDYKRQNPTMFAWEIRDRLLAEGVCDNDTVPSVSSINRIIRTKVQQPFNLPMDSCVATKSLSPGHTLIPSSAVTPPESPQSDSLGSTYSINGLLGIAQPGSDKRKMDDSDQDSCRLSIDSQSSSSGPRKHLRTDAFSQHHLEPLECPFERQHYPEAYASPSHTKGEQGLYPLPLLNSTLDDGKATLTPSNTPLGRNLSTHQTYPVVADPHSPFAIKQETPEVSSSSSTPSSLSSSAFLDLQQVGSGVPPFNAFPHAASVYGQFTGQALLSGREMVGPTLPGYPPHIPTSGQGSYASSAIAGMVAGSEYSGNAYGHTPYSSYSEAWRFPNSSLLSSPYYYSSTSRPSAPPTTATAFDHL
smiles,measurement,setting,value
COc1ccc(NC(=O)CCC(=O)N(Cc2ccc(OC)c(OC)c2)c2nccs2)cc1,EC50,cells [1],> 350 µM (not active)
same,EC50,cells [2],> 350 µM (not active)
CC1(C)Cc2c(sc(NC(=O)c3ccc(C(=O)c4ccccc4)cc3)c2C(N)=O)C(C)(C)N1,EC50,[3],26.3 µM (active)
same,CC50,[4],20.7 µM (active)
same,EC50,Streptokinase A,> 150 µM (not active)
same,EC50,Streptococcus,> 150 µM (not active)
same,EC50,[5],16.9 µM (active)
same,EC50,[6],11.6 µM (active)
same,EC50,[7],10.3 µM (active)
Cc1ccc(S(=O)(=O)c2nc(-c3ccccc3Cl)oc2N(C)C)cc1,EC50,cells [1],> 350 µM (not active)
same,EC50,cells [2],> 350 µM (not active)
COc1ccc2c(c1)N(C(=O)CSc1n[nH]c(C)n1)C(C)(C)C=C2C,EC50,[8],> 112 µM (not active)
same,EC50,[9],> 112 µM (not active)
O=C(CC(Nc1ccccc1Cl)C(=O)O)c1ccccc1 (centres undefined),AC50,[10],13 µM (active)
CCCOC(=O)c1ccc(NC(=O)c2ccoc2C)cc1,EC50,[8],4.18 µM (active)
same,EC50,[9],5.2 µM (active)
CC(C)OCCCNC(=O)c1c(N)n(Cc2cccs2)c2nc3ccccc3nc12,EC50,[11],84.7 µM (active)
same,EC50,[12],216 µM (active)
same,AC50,[13],3.51 µM (active)
Nc1ccc(-c2cc(N)n(-c3ccccc3)n2)cc1,AC50,[10],0.8 µM (active)
CCOC(=O)C1CCCN(C(=O)c2ccc3nc(-c4ccccc4)c(-c4ccccc4)nc3c2)C1 (centres undefined),EC50,cells [1],> 350 µM (not active)
same,EC50,cells [2],> 350 µM (not active)
CCNC(=O)COc1cccc(C(=O)NCc2ccccc2)c1,EC50,cells [1],> 350 µM (not active)
same,EC50,cells [2],> 350 µM (not active)
COc1ccc(-c2nn(-c3ccccc3)cc2C(=O)O)cc1OC,EC50,[8],> 112 µM (not active)
same,EC50,[9],> 112 µM (not active)
O=C(/C=C/c1cn(-c2ccccc2)nc1-c1cccnc1)c1ccco1,CC50,[4],11.5 µM (active)
Cc1c(NC(=O)CSc2cccc3cccnc23)c(=O)n(-c2ccccc2)n1C,EC50,[14],1.31 µM (active)
same,EC50,[11],17.4 µM (active)
same,EC50,[15],> 30 µM (not active)
same,EC50,[12],17 µM (active)
O=C1/C(=C\c2ccc([N+](=O)[O-])cc2)CCc2ccccc21,EC50,[8],8.13 µM (active)
same,EC50,[9],2.53 µM (active)
FC(F)(F)c1cnc(N2CCN(C(S)=NCc3ccccc3)CC2)c(Cl)c1,EC50,cells [1],> 350 µM (not active)
same,EC50,cells [2],> 350 µM (not active)
Cc1ccc(NC(=O)N2CCC(c3ccccc3)C2)cc1C (centres undefined),EC50,[8],> 112 µM (not active)
same,EC50,[9],> 112 µM (not active)
CCOc1ccc(-c2cc(CCCC(=O)NCCC(C)C)no2)cc1,CC50,[4],> 40 µM (active)
same,IC50,cells [16],10.6 µM (active)
CC(=O)c1ccc2c(c1)C1C(Cl)C(Sc3ccccc3[N+](=O)[O-])CC1C(c1ccccc1)N2 (centres undefined),CC50,[4],> 40 µM (active)
CC1CC/C(=C\c2ccc3c(c2)OCO3)C(=O)/C1=C/c1ccc2c(c1)OCO2 (centres undefined),AC50,Cytochrome P450 2D6,2.51 µM (inconclusive)
same,AC50,Cytochrome P450 2C9,6.31 µM (inconclusive)
same,EC50,[11],13.8 µM (active)
same,EC50,[12],14.3 µM (active)
same,AC50,[13],2.92 µM (active)
Cc1cc(C)cc(-n2c(N)c(C(=O)Nc3c(C)n(C)n(-c4ccccc4)c3=O)c3nc4ccccc4nc32)c1,EC50,[14],1.21 µM (active)
same,EC50,[11],11.8 µM (active)
same,EC50,[15],> 60 µM (not active)
same,EC50,[12],13 µM (active)
O=C(NCCCN1CCOCC1)c1cc(-c2ccccc2)on1,EC50,cells [1],11.5 µM (active)
same,EC50,cells [2],> 350 µM (not active)
CN(C)CCNC(=O)/C(=C/c1ccc(-c2cccc(Cl)c2)o1)NC(=O)c1ccccc1,EC50,[11],10.3 µM (active)
same,EC50,[12],10.3 µM (active)
same,EC50,[17],> 260 µM (inactive)
Cc1cnc(NC(=O)NCC2CCCC(CNC(=O)Nc3ncc(C)s3)C2)s1 (centres undefined),CC50,[4],> 40 µM (active)
CNc1nnc(CSc2nc3ccccc3s2)s1,AC50,[10],0.714 µM (active)
O=C(Cn1cccc1)N1CCN(c2ccc(F)cc2)CC1,EC50,[8],> 112 µM (not active)
same,EC50,[9],> 112 µM (not active)
COc1ccc(/C=C2\SC(=O)N(CCC(=O)N(C)C3CCS(=O)(=O)C3)C2=O)cc1 (centres undefined),EC50,cells [1],> 350 µM (not active)
same,EC50,cells [2],> 350 µM (not active)
CCC12CN(S(=O)(=O)c3ccc(C)cc3)CC(CC)(CN(S(=O)(=O)c3ccc(C)cc3)C1)C2=O,AC50,[18],42.7 µM (active)
same,AC50,[19],66.7 µM (active)
same,AC50,[20],3.48 µM (active)
same,AC50,[21],2.44 µM (active)
same,AC50,[22],22 µM (active)
Cc1ccc(C(=O)N2CCN(c3ccccc3O)CC2)cc1S(=O)(=O)N1CCCCC1,AC50,[10],9.33 µM (active)
Cc1ccc(S(=O)(=O)N(C)C[C@@H]2Oc3ccc(NS(=O)(=O)c4ccccc4)cc3CC(=O)N([C@H](C)CO)C[C@@H]2C)cc1,AC50,[18],8.38 µM (active)
same,AC50,[21],2.75 µM (active)
same,AC50,[22],26.6 µM (active)
O=[N+]([O-])c1cc2c(ccc3occc32)o1,AC50,Paired box protein Pax-8,2.49 µM (active)
CN(Cc1ccccc1)N=Nc1[nH]cnc1C(N)=O,AC50,Paired box protein Pax-8,21.2 µM (active)
C[C@H](CO)N1C[C@H](C)[C@H](CN(C)S(=O)(=O)c2ccccc2)Oc2ccc(NS(=O)(=O)c3ccc(F)cc3)cc2CC1=O,AC50,[18],28.8 µM (active)
same,AC50,[21],15.1 µM (active)
Cc1ccc(S(=O)(=O)N2CCN(CC(=O)N/N=C\C(Cl)=C\c3ccccc3)CC2)cc1,EC50,[11],44.2 µM (active)
same,EC50,[12],39.3 µM (active)
COc1c(/C=N/NC(=O)c2ccccc2O)c(CCN(C)C(C)=O)cc2c1OCO2,EC50,[8],> 112 µM (not active)
same,EC50,[9],> 112 µM (not active)
O=C(O)CCCCCCC1C(=O)NC(=O)N1CCC(O)C1CCCCC1 (centres undefined),EC50,[8],> 112 µM (not active)
same,EC50,[9],< 0.088 µM (active)
